This note sets out measurements from US20240390298A1, “CYCLOHEXYL BETA-HYDROXY ALKYL AMINES AND MEDICAL USES THEREOF” (ATROGI AB, priority 2021, published 2024).

Assay [1] concerns L6-myotubes. The assay can be described thus: Glucose uptake in differentiated L6-myotubes (3H-2-deoxyglucose), compared to isoproterenol. It counts as cell-based. The following applies: agonist 1×10^−5 M, 50 nM 3H-2-deoxyglucose; for Emax at 10 µM: read-out: Biological example 1: glucose uptake, activity compared to that of isoproterenol. On the procedure:
(§1) L6-myoblasts were grown in Dulbecco's Modified Eagle's Medium (DMEM) containing 1 g/L glucose supplemented with 10% fetal bovine serum, 2 mM L-Glutamine, 50 U/mL penicillin, 50 μg/mL streptomycin and 10 mM HEPES. Cells were plated at 1×10^5 cells per mL in 24-well plates. After reaching 90% confluence the cells were grown in medium containing 2% FBS for 7 days where upon cells differentiated into myotubes.
Differentiated L6-myotubes were serum-starved overnight in medium containing 0.5% fatty-acid free BSA and stimulated with an agonist, with a final concentration of 1×10^−5 M. After 1 h 40 min the cells were washed with warm glucose free medium or PBS twice and another portion of agonist was added to the glucose free medium. After 20 min the cells were exposed to 50 nM ^3H-2-deoxyglucose for 10 min before washed with ice cold glucose free medium or PBS three times and lysed with 0.2 M NaOH, 400 μL/well, for 1 h at 60° C. The cell lysate was mixed with 4 mL scintillation buffer (Emulsifier Safe, Perkin Elmer) and the radioactivity was detected in a β-counter (Tri-Carb 4810TR, Perkin Elmer). The activity for each compound is compared to that of isoproterenol.

Assay [2] relates to L6-myotubes. The assay can be described thus: Measurement of intracellular cAMP levels in differentiated L6 cells (alpha screen cAMP kit), compared to isoproterenol. It counts as cell-based. The following applies: agonist 1×10^−5 M, 15 min; for Emax at 10 µM: Rattus norvegicus, L6, 0.25 h, read-out: Biological example 2: intracellular cAMP levels, activity compared to that of isoproterenol. As for the experimental part: as §1
Differentiated cells were serum-starved overnight and stimulated with an agonist, final concentration 1×10^−5 M, for 15 min in stimulation buffer (HBSS supplemented with 1% BSA, 5 mM HEPES and 1 mM IBMX, pH 7.4). The medium was aspirated and 100 μL of 95% EtOH was added to each well of the 24-well plate and cells were kept at −20° C. overnight. The EtOH was allowed to evaporate and 500 μL of lysis buffer (1% BSA, 5 mM HEPES and 0.3% Tween-20, pH 7.4) was added to each well. The plate was kept at −80° C. for 30 min and then at −20° C. until the day of detection when the samples were thawed. Intracellular cAMP levels were detected using an alpha screen cAMP kit (6760635D from Perkin Elmer). The activity for each compound is compared to that of isoproterenol.
A general note: Cyclic AMP is a second messenger, typically raised through Gs and lowered through Gi signalling.

Structures can show the parent of a compound that is named as a salt. A value given as a limit tells only on which side of the number the result lay.

With `CC(C)(C[C@H]1CC[C@H](O)CC1)NC[C@H](O)c1cncc(F)c1` [Example 52, (1R,4r)-4-(2-(((R)-2-(5-Fluoropyridin-3-yl)-2-hydroxyethyl)amino)-2-methylpropyl)cyclohexan-1-ol], the “Biological example 1: glucose uptake, activity compared to that of isoproterenol” value in the assay on L6-myotubes [1] is listed as “+ + +”. Moreover, the Emax at 10 µM in the assay with L6-myotubes [2] was less than 25%.
As for `CC(C)(NC[C@H](O)c1cccc(F)c1)[C@H]1CC[C@@H](O)CC1` [Example 34, (1S,4s)-4-(2-(((R)-2-(3-Fluorophenyl)-2-hydroxyethyl)amino)propan-2-yl)cyclohexan-1-ol], in the assay on L6-myotubes [1], the “Biological example 1: glucose uptake, activity compared to that of isoproterenol” value is “+ +”. Moreover, the Emax at 10 µM in the assay on L6-myotubes [2] was less than 25%.
For `CC(C)(CC[C@H]1CC[C@H](NS(C)(=O)=O)CC1)NC[C@H](O)c1cncc(F)c1` [Example 94, N-((1S,4r)-4-(3-(((R)-2-(5-Fluoropyridin-3-yl)-2-hydroxyethyl)amino)-3-methylbutyl)cyclohexyl)methanesulfonamide], the “Biological example 1: glucose uptake, activity compared to that of isoproterenol” value in the assay with L6-myotubes [1] was “+ +”. For the same compound, the Emax at 10 µM with L6-myotubes [2] is less than 25%.
On to `CC(C)(CC[C@H]1CC[C@H](N)CC1)NC[C@H](O)c1cncc(F)c1` [Example 92, (R)-2-((4-((1r,4S)-4-Aminocyclohexyl)-2-methylbutan-2-yl)amino)-1-(5-fluoropyridin-3-yl)ethan-1-ol], for which the Emax at 10 µM was 25 to 50% in the assay with L6-myotubes [1] and less than 25% in the assay with L6-myotubes [2].
On to `CC(=O)N[C@H]1CC[C@H](CC(C)(C)NC[C@H](O)c2cccnc2C)CC1.Cl` [Example 145, N-((1R,4r)-4-(2-(((R)-2-Hydroxy-2-(2-methylpyridin-3-yl)ethyl)amino)-2-methylpropyl)cyclohexyl)acetamide dihydrochloride], for which the “Biological example 1: glucose uptake, activity compared to that of isoproterenol” value in the assay on L6-myotubes [1] is on record as “+ + +”. Further, in the assay with L6-myotubes [2], the Emax at 10 µM was less than 25%.
For `CO[C@@H]1CCC[C@H](C(C)(C)NC[C@H](O)c2cncc(F)c2)C1` (single isomer, unassigned) [Example 121], in that order: “+ +” and less than 25%.
As to `COC1CCC(CCCNC[C@H](O)c2cccc(F)c2)CC1` (stereo partly drawn) [Example 17, (R)-1-(3-Fluorophenyl)-2-((3-((1r,4S)-4-methoxycyclohexyl)propyl)-amino)ethan-1-ol], the Emax at 10 µM in the assay on L6-myotubes [1] is 25 to 50%; in the assay with L6-myotubes [2], less than 25%.
As for `CC(=O)N[C@H]1CC[C@@H](CNC[C@H](O)c2cccc(F)c2)CC1` [Example 73, N-((1S,4s)-4-((((R)-2-(3-Fluorophenyl)-2-hydroxyethyl)amino)-methyl)cyclohexyl)acetamide], the “Biological example 1: glucose uptake, activity compared to that of isoproterenol” value with L6-myotubes [1] is listed as “+ +”. In addition, the Emax at 10 µM in the assay on L6-myotubes [2] is less than 25%.
With `O[C@@H](CNCC[C@H]1CC[C@H](O)CC1)c1cncc(F)c1` [Example 48, (1R,4r)-4-(2-(((R)-2-(5-Fluoropyridin-3-yl)-2-hydroxyethyl)amino)-ethyl)cyclohexan-1-ol], the Emax at 10 µM in the assay with L6-myotubes [1] was 25 to 50%; in the assay with L6-myotubes [2] it was less than 25%.
Take `CC(C)(CC[C@H]1CC[C@@H](O)CC1)NC[C@H](O)c1cccc(F)c1` [Example 64, (1R,4s)-4-(3-(((R)-2-(3-Fluorophenyl)-2-hydroxyethyl)amino)-3-methyl-butyl)cyclohexan-1-ol]: in the assay with L6-myotubes [1], the “Biological example 1: glucose uptake, activity compared to that of isoproterenol” value is “+ + +”. Besides, the Emax at 10 µM with L6-myotubes [2] was less than 25%.
For the compound `CC(C)(C[C@H]1CC[C@@H](N)CC1)NC[C@H](O)c1cccc(C#N)n1` [Example 134, 6-((S)-2-((1-((1s,4R)-4-Aminocyclohexyl)-2-methylpropan-2-yl)amino)-1-hydroxyethyl)picolinonitrile trihydrochloride], the “Biological example 1: glucose uptake, activity compared to that of isoproterenol” value with L6-myotubes [1] is given as “+ +”. In addition, in the assay with L6-myotubes [2], the Emax at 10 µM was less than 25%.
For `CC(C)(C[C@H]1CC[C@@H](NS(=O)(=O)C(F)(F)F)CC1)NC[C@H](O)c1cncc(F)c1` [Example 199, 1,1,1-Trifluoro-N-((1S,4s)-4-(2-(((R)-2-(5-fluoropyridin-3-yl)-2-hydroxy-ethyl)amino)-2-methylpropyl)cyclohexyl)methanesulfonamide dihydrochloride], in that order: “+ + +” and less than 25%.
With `COC(=O)[C@H]1CC[C@@H](CC(C)(C)NC[C@H](O)c2cncc(F)c2)CC1` [Example 104, Methyl (1S,4s)-4-(2-(((R)-2-(5-fluoropyridin-3-yl)-2-hydroxyethyl)amino)-2-methylpropyl)cyclohexane-1-carboxylate], the “Biological example 1: glucose uptake, activity compared to that of isoproterenol” value with L6-myotubes [1] is on record as “+ + +”. Moreover, the Emax at 10 µM in the assay on L6-myotubes [2] was less than 25%.
On to `CC(C)(NC[C@H](O)c1cncc(F)c1)[C@H]1CC[C@@H](O)CC1` [Example 36, (1S,4s)-4-(2-(((R)-2-(5-Fluoropyridin-3-yl)-2-hydroxyethyl)amino)propan-2-yl)cyclohexan-1-ol], for which the Emax at 10 µM was 25 to 50% in the assay on L6-myotubes [1] and less than 25% in the assay on L6-myotubes [2].
Turning to `CO[C@@H]1CCC[C@H](C(C)(C)NC[C@H](O)c2cccc(F)c2)C1` (single isomer, unassigned) [Example 119], the “Biological example 1: glucose uptake, activity compared to that of isoproterenol” value with L6-myotubes [1] was “+ + +”. Besides, the Emax at 10 µM in the assay on L6-myotubes [2] was less than 25%.
In the case of `CO[C@H]1CC[C@H](CNC[C@H](O)c2cccc(F)c2)CC1` [Example 3, (R)-1-(3-Fluorophenyl)-2-((((1r,4R)-4-methoxycyclohexyl)methyl)amino)-ethan-1-ol], the “Biological example 1: glucose uptake, activity compared to that of isoproterenol” value in the assay on L6-myotubes [1] is listed as “+ +”. In the assay with L6-myotubes [2], the Emax at 10 µM was less than 25%.
`CC(C)(C[C@H]1CC[C@@H](NS(C)(=O)=O)CC1)NC[C@H](O)c1cccc(C(F)(F)F)n1` [Example 150, N-((1R,4s)-4-(2-(((S)-2-Hydroxy-2-(6-(trifluoromethyl)pyridin-2-yl)ethyl)-amino)-2-methylpropyl)cyclohexyl)methanesulfonamide dihydrochloride]: the “Biological example 1: glucose uptake, activity compared to that of isoproterenol” value in the assay on L6-myotubes [1] is listed as “+ + +”. Moreover, the Emax at 10 µM in the assay on L6-myotubes [2] is less than 25%.
For `CN([C@H]1CC[C@@H](CC(C)(C)NC[C@H](O)c2cccc(F)c2)CC1)S(C)(=O)=O.Cl` [Example 181, N-((1S,4s)-4-(2-((®-2-(3-Fluorophenyl)-2-hydroxyethyl)amino)-2-methyl-propyl)cyclohexyl)-N-methylmethanesulfonamide hydrochloride], in that order: “+ +” and less than 25%.
As to `CN(C)S(=O)(=O)[C@H]1CC[C@H](CC(C)(C)NC[C@H](O)c2cccc(F)c2)CC1.Cl` [Example 186, (1R,4r)-4-(2-(((R)-2-(3-Fluorophenyl)-2-hydroxyethyl)amino)-2-methyl-propyl)-N,N-dimethylcyclohexane-1-sulfonamide hydrochloride], the “Biological example 1: glucose uptake, activity compared to that of isoproterenol” value in the assay with L6-myotubes [1] is reported as “+ + +”. Besides, the “Biological example 2: intracellular cAMP levels, activity compared to that of isoproterenol” value with L6-myotubes [2] was “+ +”.
With `O[C@@H](CNCC[C@H]1CC[C@@H](O)CC1)c1cccc(F)c1` [Example 42, (1S,4s)-4-(2-(((R)-2-(3-Fluorophenyl)-2-hydroxyethyl)amino)ethyl)-cyclohexan-1-ol], the “Biological example 1: glucose uptake, activity compared to that of isoproterenol” value in the assay with L6-myotubes [1] is given as “+ +”. Also, in the assay with L6-myotubes [2], the Emax at 10 µM is less than 25%.
With `CO[C@H]1CC[C@H](C(C)(C)NC[C@H](O)c2cccc(F)c2)CC1` [Example 7], the “Biological example 1: glucose uptake, activity compared to that of isoproterenol” value with L6-myotubes [1] is listed as “+ + +”. Further, the Emax at 10 µM in the assay on L6-myotubes [2] was less than 25%.
